Holding throughout (format): cell-based
Test [1] relates to Herpes Simplex Virus type 2 strain G (No. VR-734 ATCC). Description: Antiviral activity, virus cytopathogenic action in Vero cells. Set-up: key: 0: CPA (cytopathogenic action) is not detected; 1: up to 25% virus-infected monolayer; from 25% to 50%; 3: from 50% to 75%; 4: from 75% to 100%. Particulars: 48 hours. On the procedure: (§1) […] used in the study were used Herpes Simplex Virus type 1 (the Collection of Microorganisms at the Scientific Research Institute of Virology, strain EC), Herpes Simplex Virus type 2 strain G (No. VR-734 ATCC), and human cytomegalovirus strain AD169 (No. VR-538 ATCC). Herpes Simplex viruses type 1 and type 2 were cultured in Vero cells. The cells were incubated in MEM Eagle growth medium (MEM, BioloT, St-Petersburg, 1.3.3) supplemented with 10% fetal bovine serum (BioloT, St-Petersburg, 1.3.12) in Sanyo MCO-15AC gas-flow thermostat (37° C., 5% CO2) (Tokyo, Japan). A seed dose was 2×10^5 cells/ml in the starting inoculum or 2×10^4 cells/well. Herpes Simplex viruses were cultured under the same conditions in the MEM medium without serum (maintenance medium). Starting viral titers were 10^7 TCID50/ml.
(§2) For DMSO-soluble preparations, stock solutions were prepared in a concentration of 10 mM in DMSO. For water-soluble preparations, a stock solution prepared had the same concentration in the MEM medium (Minimal Essential Medium) for cell cultures. To control cytotoxicity (see below), the stock solution was diluted in the medium to a concentration of 100 μM and ten-fold serial dilutions of the preparations were made in the MEM medium (for DMSO-soluble compounds—in the MEM medium comprising 3% DMSO). The following concentrations of the preparations were used in the study of […]: if toxicity was not found, the concentrations of 100 μM preparations were 100, 10 and 1 μM; if toxicity was detected, the concentrations of 100 μM preparations were 10, 1, and 0.1 μM. Acyclovir (10 μg/ml) was used for Herpes Simplex viruses of both types as a reference preparation to control the viral model validity.
(§3) To study antiviral activity, plate wells with a cell monolayer were added with the preparations in an amount of 0.1 ml/well. To compensate a reduction in the concentration of the preparations, which takes place in the following addition of viruses, twofold concentrations of compounds (i.e. 200, 20 and 2 or 20, 2 and 0.2 μM for […] concentrations of 100 μM preparations, respectively) were used, incubated for an hour and then were infected with the examined 0.1 ml/well viruses in doses 1, 10 and 100 TCID50 (50% tissue infectious dose).
(§4) The virus-specific cytogenic action was manifested in an increase in the size of cells, their rounding, and detachment from a substrate. These morphological characteristics served as their marked difference from the cells subjected to a toxic action of high concentrations of the examined preparations. The latter acquired spindle-like shape, lost contacts with neighboring cells of the monolayer, and their boundaries became more distinct.
(§5) Intensity of the virus-specific changes in the cells were semi-quantified using a 4-score system: 0—CPA (cytopathogenic action) is not detected; 1—up to 25% virus-infected monolayer; 2—from 25% to 50%; 3—from 50% to 75%; and 4—from 75% to 100%. The antiviral activity of a compound was evaluated according to their ability to reduce the manifestation of cytopathogenic action in the plate wells compared to the control values. Differences with the control values by 1 score and more were considered to be significant.
In general terms: Protection from cytopathic effect is a common read-out in antiviral testing.

Test [2] relates to Micrococcus luteus BKM Ac-2230. The test is described as follows: Antibacterial activity, serial dilutions in liquid MH medium. On the procedure: (§6) The antibacterial activity of the compounds was determined against strains of gram-positive bacteria such as Staphylococcus aureus 209P, Enterococcus faecalis BKM B-871, Micrococcus luteus BKM Ac-2230, Bacillus subtilis BKM B-501, and gram-negative bacteria such as Pseudomonas aeruginosa PAO1 and Escherichia coli KM MGU C-600. BKM strains were acquired from the All-Russia Collection of Microorganisms at the Institute for Biochemistry and Physiology of Microorganisms, Russian Academy of Sciences. Strain Staphylococcus aureus 209P was acquired from the Collection of Microorganisms at the Department of microbiology of the Faculty of Biology of Lomonosov Moscow State University, and Pseudomonas aeruginosa PAO1 was acquired from the Collection of Microorganisms at the Institute of Bioorganic Chemistry of the Russian Academy of Sciences.
(§7) The main parameters characterizing the antibacterial activity are the minimal inhibitory concentration (MIC) and minimal bactericidal concentration (MBC). […] MBC is the least concentration that causes the death of all cells.
(§8) MIC was quantified by inhibiting culture growth in a liquid medium with serial dilutions of compounds using a modified procedure [Amsterdam, D., 1966. “Susceptibility testing of antimicrobials in liquid media,” pp. 52-111. In Loman, V., ed. Antibiotics in laboratory medicine, 4th ed. Williams and Wilkins, Baltimore].
(§9) Bacteria were cultured and tested on an MH liquid medium (Mueller-Hinton medium: a dry extract of beef broth, 4 g/L; starch, 1.5 g/L; casein hydrolyzate, 17.5 g/L; Sigma-Fluka Catalog No. 70192) at 37° C., 100% humidity, and under stirring. Cultures (within 4 to 7 passages after thawing) in the exponential growth phase were used for tests.
(§10) All tested compounds absorb light at 595 nm, a wavelength used for evaluating bacterial culture growth. Therefore, a correction for absorption was applied in estimating the optical density of bacterial suspensions for each compound with account for its concentration in the well. Bacterial growth inhibition (GI) as percentage after 20 hours of incubating cells with compounds was derived from the optical density (A) measured in every well at a wavelength of 595 nm using the equation: GIi=[(Act−Ac0)−(Ait−Ai0)]×100/(Act−Ac0), (1) wherein the subscripts have the following meanings: i denotes the well number, c denotes a control well with bacteria whereto the tested compound is not inserted, 0 refers to the measurement taken immediately once the tested compound was inserted to the well, and t refers to the measurement taken 20 hours after the compound was inserted.
(§11) The protocol for the determination of experimental antibacterial activity of the tested compounds was as follows. A cryovial with the test strain culture in a medium with 7% DMSO stored in liquid nitrogen, was rapidly defrosted, and 1.5 mL of the fresh MH medium was inoculated with 100 μL of the cell suspension. Cells were grown for one day at 37° C. and stirred on an orbital shaker at 150 rpm. The morphologic features of the strain and the absence of contamination with foreign bacteria were verified by: (a) inoculation on an agarized (15 g/L agar) MH medium and observation of the shape and color of the grown colonies and (b) examination of characteristic morphologic features under a microscope (Mikmed-2, LOMO, Russia) equipped with a 40× objective lens. Further, the bacteria were cultured in 1 mL of the liquid MH medium at 37° C. under stirring. The cells were reseeded every day. Cell cultures were used in tests starting with 3rd reseeding and ending with 6th one.
(§12) For testing, 5 μL of a bacterial suspension in the stationary growth phase was transferred to 1 mL of a sterile MH medium and incubated until the exponential growth phase was attained (3 to 5 h, 37° C., stirring at 150 rpm). To estimate the microorganism concentration, the optical density (A) of the resulting bacterial culture was measured at a wavelength of 595 nm. […]

In test [3] the test system is Bacillus subtilis BKM B-501. The description is as above. Particulars: MH medium, 20 h, 37° C., 100% growth inhibition. On the procedure: as §6, §7, §8, §9, §10, §11, §12
Test [4] deals with Staphylococcus aureus No. 5 (MRSA). Description: Antibacterial specific activity, twofold dilutions, visual growth evaluation. The settings on record: St. aur No. 5 MRSA; 36° C., 24 hours. On the procedure:
(§13) The specific activity of compounds also was determined against bacteria strains such as Staphylococcus aureus No. 25923 ATCC (American Type Culture Collection); Staphylococcus aureus No. 100 KC; Staphylococcus epidermidis No. 533; Enterococcus faecalis No. 559; Enterococcus faecium No. 569, Staphylococcus aureus No. 5 (MRSA), Staphylococcus aureus No. 3797 (MRSA). Staphylococcus aureus was cultured on the Trypticase Soy Agar (BBL) commercially available dry medium. Enterococcus faecalis was cultured on the Columbia Agar (BBL) commercially available dry medium. These media were sterilized by autoclaving at 121° C. for 15 min. Bacterial inoculum was constant and was 5×10^5 CFU/ml (10^5 CFU/0.2 ml). For water-soluble compounds, wells from 2nd through 8th were added with the solvent (water) in an amount of 15 μL per well, then the 1st well was added with 30 μL of the stock solution of the tested compound in […] with a concentration of […], and the concentration was adjusted to 0.007×10^3 M by serial twofold dilutions. A 10-μL portion was taken from every well, and 190 μL of the bacterial culture (10^5 CFU) was added per well. For DMSO-soluble compounds, wells from 2nd through 8th were added with the solvent (DMSO) in an amount of 10 μL per well, then the 1st well was added with 20 μL of the stock solution of the tested compound in […] with a concentration of […], and the concentration was adjusted to 0.039×10^3 M by serial twofold dilutions. A 2-μL portion was taken from each well, and 198 μL of the bacterial culture (10^5 CFU) was added per well.
(§14) The control comprised wells free of tested compounds (culture growth control). In addition, purity control of nutritional media and solvents was used. Plates were incubated in a thermostat at 36° C. for 24 hours.
(§15) Culture growth was evaluated visually by comparison of how microorganisms grew in the presence of tested compounds and in the absence of them. MIC was set equal to the last dilution of a tested agent which suppressed bacterial culture growth.

The subject of test [5] is Staphylococcus aureus No. 3797 (MRSA). Described as above. Particulars: St. aur No. 3797 MRSA; 36° C., 24 hours. On the procedure:
as §13, §14, §15

The subject of test [6] is Staphylococcus aureus No. 100 KC. Described as above. The settings on record: S. aureus 100 KC; 36° C., 24 hours. On the procedure:
as §13, §14, §15

The test system of test [7] is Enterococcus faecalis No. 559. The test is described as above. The settings on record: E. faecalis 559; 36° C., 24 hours. On the procedure: as §13, §14, §15
The test system of test [8] is Vancomycin-resistant Enterococcus faecium 569. Described as above. Particulars: Vancomycin-resistant E. faecium 569; 36° C., 24 hours. On the procedure:
as §13, §14, §15

Test [9] concerns Staphylococcus epidermidis No. 533. Described as above. The settings on record: S. epidermis 533; 36° C., 24 hours. On the procedure:
as §13, §14, §15

Test [10] relates to Staphylococcus aureus No. 25923 ATCC. The test is described as above. The settings on record: S. aureus 25923; 36° C., 24 hours. On the procedure:
as §13, §14, §15

In another test the test system is Escherichia coli 4300. Described as above. Particulars: E. coli 4300; 36° C., 24 hours. On the procedure:
[Worded in the source for another organism; this organism is reported under the same test.] as §13, §14, §15

The subject of test [11] is Herpes Simplex Virus type 1 strain EC. Description: Antiviral activity, virus cytopathogenic action in Vero cells. More on the design: key: 0: CPA (cytopathogenic action) is not detected; 1: up to 25% virus-infected monolayer; from 25% to 50%; 3: from 50% to 75%; 4: from 75% to 100%. Particulars: 48 hours. On the procedure:
as §1, §2, §3, §4, §5

Where only a bound is given, the exact number is not on record here.

On to “6,7-bis-[(Diamide N^α-L-Seryl)-L-glutamyl]-Protohemin (IX) [XII]”, for which the “manifestation of the virus CPA” value in [1] (HSV-2, virus dose 1, concentration 0.1 μM) was 0.5 scores; in [1] (HSV-2, virus dose 1, concentration 1 μM) it was 0.5 scores; in test [1] (HSV-2, virus dose 1, concentration 10 μM), 0^1; in [1] (HSV-2, virus dose 10, concentration 0.1 μM), 2 (from 25% to 50%); in test [1] (HSV-2, virus dose 10, concentration 1 μM), 1.5 scores; in test [1] (HSV-2, virus dose 10, concentration 10 μM), 1^1 (up to 25% virus-infected monolayer). The “manifestation of the virus CPA” value is given as 3 (from 50% to 75%) in test [1] (HSV-2, virus dose 100, concentration 0.1 μM); 3 (from 50% to 75%) in test [1] (HSV-2, virus dose 100, concentration 1 μM); 3 (from 50% to 75%) in test [1] (HSV-2, virus dose 100, concentration 10 μM).

“6,7-bis-(Methyl Ester N^α—(N^G-Nitro)Arginyl)-Protohemin (IX) [III]”: the minimal inhibitory concentration (MIC) – broadly, the least concentration at which growth counts as inhibited – in [2] (MH medium, 20 h, 37° C., 100% growth inhibition) stood at 1.6 µM; in test [3], 12.5 µM; in test [4] it was 25 µM; in test [5] it was 25 µM. In addition, the MBC (in general, the smallest concentration meeting the test's criterion for killing) in [2] (no colonies on agarized MH medium) came to 6.3 µM.

Regarding “6,7-bis-[(N^α-L-Seryl)-L-Arginyl]-Protohemin (IX) [XXII]”, the MIC was 0.39 µM in [6]; 25 µM in test [4]; 20.8 µM in [5]; more than 50.0 µM in [7]; 5.2 µM in [8]; 1.3 µM in [9]. Further, the MIC is 1.3 µM in test [10] and more than 50.0 µM against Escherichia coli 4300.

As to “6,7-bis-[(Methyl Ester N^α-L-Seryl)-L-Arginyl]-Protohemin (IX) [XIX]”, the MIC was found to be 0.78 µM in [6]; 1.56 µM in [4]; 1.3 µM in test [5]; 1.3 µM in [7]; 6.25 µM in test [8]; 1.3 µM in test [9]. In addition, the MIC in test [10] was 0.65 µM; against Escherichia coli 4300 it was more than 50.0 µM.

Regarding `Nc1nc2c(ncn2COCCO)c(=O)[nH]1` [Acyclovir, reference compound], the “manifestation of the virus CPA” value in test [1] (HSV-2, virus dose 1, 10 μg/ml) is given as 0^1; in [1] (HSV-2, virus dose 10, 10 μg/ml), 0^1; in [1] (HSV-2, virus dose 100, 10 μg/ml), 0^1; in [11] (HSV-1, virus dose 1, 10 μg/ml) it was 0^1; in test [11] (HSV-1, virus dose 10, 10 μg/ml), 0^1; in test [11] (HSV-1, virus dose 100, 10 μg/ml), 0^1.

(Values after US9605013B2, “Derivatives of hemin with antibacterial and antiviral activity” (OBSCHESTVO S OGRANICHENNOI OTVETSTVENNOSTIYU …, priority 2011, dated 2017).)
